Earlier results as cited in patent publication US5164490A, “Pneumocystis carinii dihydrofolate reductase gene and methods for its use” (The Regents of the University of California, priority 1989, dated 1992).

Tested on: P. carinii
Settings: trimethoprim alone

SMILES: COc1cc(Cc2cnc(N)nc2N)cc(OC)c1OC [trimethoprim]
- efficacy in the rat model of P. carinii infection: lack of efficacy
